The nature of series [1]: Human ingestion of DHA in studies in support of the invention. In kind it is in vivo. The following applies: approximately 800 mg DHA daily. The method, then:
The average dietary intake of DHA (10-60 mg/day) in the American diet is relatively low in comparison to intake in countries where fish or fish products comprise higher percentages of the diet. […] Generally, ranges of about 10-10,000 mg, or more specifically, about 50-2000 mg, or 100-1000 mg will-be preferred. […] Appropriate dosages of other polyunsaturated fatty acids can be estimated with reference to this study, based on known safe ingestion levels, or may be determined empirically, with the guidance provided herein.

The conditions of series [2]: 3.6 gm DHA per day ingested by humans; cited from earlier work.

Regarding `CC/C=C\C/C=C\C/C=C\C/C=C\C/C=C\C/C=C\CCC(=O)O` [DHA, all-cis 4,7,10,13,16,19-docosahexaenoic acid], the adverse effects result in series [1] is on record as “no apparent adverse effects”. Further, the toxicities result in series [2] is listed as “no apparent toxicities”.

Values taken from patent US20030144219A1, “Formulations and methods for treatment or amelioration of inflammatory conditions” (priority 2001, published 2003).
